Several values for one entry are separate records, joined by “and”; a condition that tells them apart may be missing. Identical values can stand only once. Entries after “also recorded” stand apart in the source; their conditions may differ. No end group written: not given here.
Legend:
[1] = biological target: T1, [OG488]-EGR-hXa-human factor tor Va (Homo sapiens, UniProt P00742); test: Fluorescence anisotropy of preformed membrane-bound [OG488]-EGR-hXa-factor Va complex; format: binding; conditions: up to 300 μM peptide
T1 construct: purchased Haematologic Technologies Inc. (Essex Junction, Vt.)
T1 sequence (P00742 41-179 limits assumed): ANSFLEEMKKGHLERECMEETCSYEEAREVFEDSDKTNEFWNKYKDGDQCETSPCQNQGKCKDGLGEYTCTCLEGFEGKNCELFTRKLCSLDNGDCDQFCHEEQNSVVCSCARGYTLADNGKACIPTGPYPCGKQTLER
T1 sequence (P00742 235-488 limits assumed): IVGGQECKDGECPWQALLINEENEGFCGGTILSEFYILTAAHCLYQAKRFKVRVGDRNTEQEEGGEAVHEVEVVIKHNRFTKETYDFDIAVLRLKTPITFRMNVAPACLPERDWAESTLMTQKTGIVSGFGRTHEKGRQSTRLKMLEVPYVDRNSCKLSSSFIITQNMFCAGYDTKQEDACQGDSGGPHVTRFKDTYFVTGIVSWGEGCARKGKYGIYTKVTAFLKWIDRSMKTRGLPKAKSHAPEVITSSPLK
Experimental: Fluorescence Anisotropy measurements. Fluorescence anisotropy of [OG488]-EGR-hXa was measured using a Perkin Elmer LS-50B Luminescence Spectrometer in L-format as recently described. Anisotropy measurements were performed in a quartz cuvette under constant stirring (low) with λex=490 nm, λem=520 nm with a long pass filter (Schott KV-520) in the emission beam. […] The concentration of peptide given in each graph is the final concentration of the peptide in the assay mixture. […] In some cases the data were also plotted using DeltaGraph (DeltaPoint, Monterey, Calif.).
HC3 and HC4 were also tested for their ability to interfere with the fluorescence anisotropy of a preformed complex composed of membrane-bound [OG488]-EGR-hXa-human factor tor Va as described. […] The peptides must thus impair another function of the cofactor within prothrombinase.

[2] = biological target: T2, prothrombinase (Homo sapiens, UniProt P00734); test: Assay measuring thrombin formation (prothrombinase inhibition by peptides, DAPA fluorescence); format: biochemical
T2 construct: purchased Haematologic Technologies Inc. (Essex Junction, Vt.)
Experimental: Assay measuring thrombin formation. The formation of thrombin was analyzed using the fluorescent thrombin inhibitor DAPA as described using a Perkin Elmer LS-50B Luminescence Spectrometer (Perkin-Elmer LLC, Norwalk Conn.) with λex=280 nm, λem=550 nm and a 500 nm long pass filter in the emission beam (Schott KV-500). […] In all cases peptides were preincubated with factor tor Va prior to the assay as described in the legend to the figures. The final concentration of factor tor Va in the mixture was 4 nM with factor Xa at 10 nM, prothrombin at 350 nM, DAPA at 700 nM, in the presence of PCPS vesicles (10 μM). The initial rate of thrombin formation (nM IIa·min^−1) was calculated as described during the initial 5-10 sec of the reaction. To verify if the peptides have any effect on the active-site of thrombin, control experiments were performed as follows: a given peptide (at 100 μM) was incubated in the assay buffer containing DAPA (700 nM); the base line was monitored for 30 sec; thrombin (350 nM) was then added to the mixture and the fluorescent intensity resulting from the complexation of DAPA with the active site of thrombin was monitored for 60 sec. The slope of the reaction measuring thrombin formation in the presence of a given peptide during the first 5 sec was calculated and compared to the slope of a reaction obtained in the absence of peptide. It is noteworthy that under the conditions employed the thrombin-DAPA interaction occurred fast and the calculated slope of the reaction was sensitive to all parameters used. […] All experiments were performed in triplicates or as indicated. The concentration of each peptide given in the figures and figure legends is their final concentration in the assay. […] In some cases the data were also analyzed and plotted using DeltaGraph (DeltaPoint, Monterey, Calif.).
Specifically, peptides were incubated with factor tor Va as described herein at a fixed concentration (100 μM). The percent of factor tor Va cofactor activity was calculated by comparing the activity of prothrombinase in the presence of a given peptide to the activity of prothrombinase determined in a control reaction in the absence of peptide and in the presence of factor Xa. […] The control peptide represents a pentadecapeptide from the middle portion of factor tor Va heavy chain (P15H) (SEQ ID NO. 22). […] All other peptides from region 680-709 had no significant effect on prothrombinase activity.
HC3 represents amino acid sequence 690-699 of factor tor Va heavy chain; HC4 contains the sequence 695-704 of human factor tor Va heavy chain; P15H represents amino acid sequence 337-351 from the middle portion of human factor tor Va heavy chain. […] The concentration of each peptide given on the x axis represents its final concentration in the prothrombinase mixture. […] Thus, both peptides show similar inhibitory potential.

[3] = biological target: T3, active-site-immobilized thrombin (Homo sapiens, UniProt P00734); test: Direct binding of the peptides to thrombin-agarose (chromatography); conditions: 400 μg peptide, 2.5 ml column, elution 2M NaCl
T3 construct: Factor Xa cleaves prothrombin to form thrombin; purchased Haematologic Technologies Inc. (Essex Junction, Vt.)
Experimental: Direct binding of the peptides to thrombin. Thrombin was immobilized onto agarose through the active site as described. Peptide solutions of HC1-HC5 (SEQ ID NO. 2-6, respectively), D13R (SEQ ID NO. 21), DYDYQ (SEQ ID NO. 11), and P15H (SEQ ID NO. 22) were dissolved in water to a given concentration and then diluted in 20 mM Hepes, 0.1 M NaCl, pH 7.4 in a manner that 400 μg was contained in each starting solution. In control experiments it was determined that the maximum amount of peptide that could be retained by the thrombin-agarose column was 400 μg. Since some of the peptides contain aromatic amino acid residues, their concentration was also measured by optical density.
Mass spectrometry instruments and conditions. The identity of all peptides found in the flow-through or the elution of the thrombin-agarose column was verified by mass spectrometry. Since the peptides were in a buffer solution, we used Liquid Chromatography/Mass Spectrometry (LC/MS) for their identification. In this procedure peptides are first separated from the salt content of the buffer using an HPLC system (HP 1100, HPLC gradient system, Agilent Technologies, Palo Alto Calif.) with a C18 column (1 mm×15 cm, GraceVydac, Hesperia Calif.) with buffers A (0.3% acetic acid in water) and B (0.3% acetic acid in acetonitrile). The elution of the column was monitored with a Micromass Quatro II ESI-Triple Quadrupole Mass Spectrometer (Waters, Milford Mass.). The data were collected using a Compaq Professional Workstation AP200 (Hewlett-Packard, Palo Alto Calif.) and analyzed by the software MassLynx v3.3 (Waters, Milford Mass.).
Direct interaction of hirudin-like peptides from factor tor Va heavy chain With thrombin-agarose. To ascertain that the peptides of interest are inhibitory of prothrombinase activity and contain a binding site for thrombin, the interaction of all peptides with active-site-immobilized thrombin was studied in chromatographic experiments and is shown in FIG. 5. In FIG. 5, small scale chromatography of hirudin-like peptides was performed on a 2.5 ml thrombin-agarose. Each run represents 400 μg of peptide. This amount of peptide was determined to saturate the specific sites of thrombin of the column used (2.5 ml). Elution was performed with 2M NaCl and was started at the point indicated by the arrow (fraction #30). The presence of the peptides in the corresponding fractions was monitored by absorbance at 280 nm (shown on the y axis) and by LC/MS (inset). […] Specifically, these peptides were treated similarly to all other peptides and similar fractions were collected. Aliquots from fractions #7 and #35 from each separate experiment were submitted to LC/MS analysis as described herein (depicted by the hatched arrows at the bottom of the chromatogram). The results from tube #7 from three chromatograms are depicted. The data are presented as % intensity of the signal as a function of the mass of the peptide divided by the charge (m/z). FIG. 5A, HC1 (Mr calculated 1268); FIG. 5B, HC2 (Mr calculated 1132); FIG. 5C, HC5 (Mr calculated 1053). The spectrum of HC1 has two major peaks: at 635.5 and at 424, and one minor peak at 1270 (1268+1). The peak at 635.5 represents the peptide (mass/charge) with two positive charges ([…]) i.e. [(1268+2=1270)]/2=635 whereas, the peak at 424 represents HC1 with three positive charges ([…]) i.e. [(1268+3=1271)]/3=424. […] HC5 spectrum has two major peaks: one at 528 and one at 352. The peak at 528 represents the peptide with two positive charges ([…]) i.e. [(1053+2=1055)]/2=527.5 while, the other peak represents HC5 with three positive charges ([M+31-]^2+) i.e. [(1053+3=1056)]/3=352. The minor peak at 1054 represents the peptide with one charge. It is noteworthy, that in gas phase the number of protons attached to each peptide depends on the number (quantity) of basic residues contained in each peptide. […] Thus, HC1 and HC5 are more likely to bind two or three protons than HC2. […]

[4] = test system: factor V deficient plasma; test: Clotting activity of recombinant factor V molecules
Experimental: Determination of factor V/tor Va clotting activity of the recombinant molecules. Cofactor activity of wild type and mutant molecules was measured in a clotting assay using factor V deficient plasma prior and after activation by thrombin (15 min, 37° C.) and RVV-V activator (2 hr, 37° C.) as described. The values were standardized to the percentage of control. A linear semi-log graph was constructed using known concentrations of purified factor V (U/ml as a function of clotting time). The assay endpoint was determined by visualization of the fibrin clot. The activity of the factor VNa solution (U/ml) was determined by extrapolation from the graph. The concentration of the recombinant molecules was determined by a recently described ELISA. Finally, the numbers were combined to obtain the specific activity of the recombinant factor V solutions (U/mg).

[5] = test system: prothrombinase; test: Prothrombinase assay using purified reagents and chromogenic substrate (cofactor activity of recombinant factor Va species); conditions: activated with RVV-V activator or factor Xa

Substance | interference with binding of factor Va to [OG488]-EGR-hXa (anisotropy) [1] | Ki ([2]; calculated from IC50=Ki(1+S0/Km), Km 0.4 μM, S0 350 nM prothrombin, read-out: Ki of prothrombinase inhibition) | IC50 ([2]; factor Va 4 nM, factor Xa 10 nM, prothrombin 350 nM, PCPS 10 μM, peptide preincubated with factor Va) | type of inhibition of prothrombinase with respect to prothrombin ([2]; kinetic analyses, increasing prothrombin and peptide) | effect on prothrombinase / factor Va cofactor activity at fixed concentration ([2]; peptide 100 μM) | interaction with immobilized thrombin (thrombin-agarose) [3] | ability to promote clotting [4] | Activity ([4]; factor V species at 2.5 nM) [U/ml] | Specific activity ([4]; factor V species at 2.5 nM) [U/mg] | clotting time ([4]; factor V species at 2.5 nM) [s] | times less cofactor activity than wild type molecule activated under similar conditions [5] [times]
EESDADYDYQ [HC3] | No significant decrease; also recorded: unable to interfere with the binding of factor tor Va | 6.3 µM and ~6.3 µM | 12 µM and ~12 µM | competitive inhibitors | inhibited prothrombinase; also recorded: complete inhibition | eluted from the column with high-salt buffer; also recorded: interact with immobilized thrombin |  |  |  |  | 
Factor VaRVV^2K2F: quadruple mutant activated with RVV-V activator |  |  |  |  |  |  | unable to promote clotting | 0.002 | 2.4 | 73.1 ± 4 | ~22
